Laboratory results published in patent US20100105663A1, “2-(HETEROARYL) ALKYL INDAZOLE 6-PHENYL AND THIENYL METHYL AMIDE AS THROMBIN INHIBITORS” (BAYER HEALTHCARE AG, priority 2006, published 2010).
pIC50: −log10 of the molar value.

Target: human thrombin (Homo sapiens, UniProt P00734)
Test: Measurement of thrombin inhibition (in vitro enzyme assay)
Format: biochemical
Settings: human thrombin 0.06 nmol/l, 15 min incubation at 22° C., pH 7.4; substrate 5 μmol/l Boc-Asp(OBzl)-Pro-Arg-AMC, 30 min, fluorescence
Protocol: For determination of the thrombin inhibition of the aforementioned substances, a biochemical test system is used, in which the conversion of a thrombin substrate is used for determining the enzymatic activity of human thrombin. In this, thrombin cleaves aminomethylcoumarin from the peptic substrate, and this is measured by fluorescence. The determinations are carried out in microtitre plates.
The test substances are dissolved at different concentrations in dimethylsulphoxide and incubated for 15 min with human thrombin (0.06 nmol/l dissolved in 50 mmol/l Tris-buffer [C,C,C-Tris(hydroxymethyl)-aminomethane], 100 mmol/l NaCl, 0.1% BSA [bovine serum albumin], pH 7.4) at 22° C. Then the substrate (5 μmol/l Boc-Asp(OBzl)-Pro-Arg-AMC from the company Bachem) is added. After incubation for 30 min the sample is excited at a wavelength of 360 nm and the emission at 460 nm is measured. The measured emissions of the test preparations with test substance are compared with the control preparations without test substance (dimethylsulphoxide only, instead of test substance in dimethylsulphoxide) and IC50 values are calculated from the concentration-effect relations.

| pIC50 | Compound |
| --- | --- |
| 6.67 | O=C(NCc1cccc(Cl)c1)c1ccc2cn(CCN3CCOC3=O)nc2c1 [Example 4, N-(3-Chlorobenzyl)-2-[2-(2-oxo-1,3-oxazolidin-3-yl)ethyl]-2H-indazole-6-carboxamide] |
| 6.96 | Cc1nn(CCn2cc3ccc(C(=O)NCc4cccc(Cl)c4)cc3n2)c(C)c1Cl [Example 26, N-(3-Chlorobenzyl)-2-[2-(4-chloro-3,5-dimethyl-1H-pyrazol-1-yl)ethyl]-2H-indazole-6-carboxamide] |
| 7.59 | CN(C)C(Cn1cc2ccc(C(=O)NCc3cccc(Cl)c3)cc2n1)c1ccccc1Cl (stereo not drawn) [Example 49, N-(3-Chlorobenzyl)-2-[2-(2-chlorophenyl)-2-(dimethylamino)ethyl]-2H-indazole-6-carboxamide] |
